Each structure is given as a SMILES string. Some results are limits rather than exact numbers.

Holding throughout (type): biochemical
One test concerns the target PRMT5 (Homo sapiens, UniProt O14744). The test can be described thus: PRMT panel selectivity test, PRMT5. The procedure:
[The procedure below names another target; the source says it served here with some conditions changed.] PRMT1 enzyme activity test were performed in a buffer prepared on the same day 5 consisting of 10 mMTirs-HCl (pH=8.0), 0.01% Tween-20 and 1 mM DTT. The compounds were prepared to the highest inhibitor concentration ultimately required in the 100× reaction with 100% DMSO and then transferred to one well of a 384-well Echo plate (Echo-eligible 384-well polypropylene microplates 2.0, transparent, flat-bottomed) and sequentially diluted in the next well with a 3-fold dilution of 100% DMSO, and so on, with a total of 10 concentrations based on Precision. 100% DMSO was added to two empty wells to serve as control well without compound and control well without enzyme in the same 384-well Echo plate. 250 nL of compound was transferred from each well of the 384-well Echo plate to a 384-well assay plate (384-well polypropylene storage microplate) via the Echo 550 liquid processor. For wells with compounds and control well without compound, a mixture (15 uL) containing PRMT1 enzyme was added to the 384-well assay plate. For control wells without enzyme, the mixture containing the assay buffer (15 uL) was added instead. The compounds were allowed to incubate with PRMT1 for 15 minutes at room temperature, and then a mixture containing ^3H-SAM and peptide (10 uL) was added to start the reaction (final volume=25 uL). […] After 120 min of incubation, the assay was terminated by the addition of non-radiolabeled SAM (5 uL) to a final concentration of 125 uM, which diluted 3H-SAM to a level at which its incorporation into the peptide substrate was no longer detected. […] Plates were read on a microplate counter (MicroBeta2) to measure the amount of ^3H-labeled peptide bound to the surface of the detection plate, measured in counts per minute (cpm).
The raw data were copied from the Reader and the inhibition values were calculated in Excel by Equation (1), Equation (1): Inh %=(CPMmax−CPMcmpd)/(CPMmax−CPMmin)*100, wherein the Max signal was obtained from the enzyme-substrate interaction and the Min signal was obtained from the substrate. […]

The next test addresses PRMT1 (Homo sapiens, UniProt Q99873). The test can be described thus: PRMT1 enzyme activity test. The settings on record: 0.5 nM PRMT1, 3H-SAM, peptide. In a few lines: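 Radiometric methylation assay: 0.5 nM PRMT1 preincubated 15 min at room temperature with compound (10-point 3-fold series, 1% DMSO) in pH 8.0 Tris buffer with Tween-20 and DTT. 0.25 uM ³H-SAM and 0.1 uM biotinylated peptide then reacted 120 min. Product captured on streptavidin FlashPlate and counted; IC50 from four-parameter fit of % inhibition.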

The target of another test is PRMT3 (Homo sapiens, UniProt O60678). Kind of test: PRMT panel selectivity test, PRMT3. The settings on record: AlphaLISA. The procedure:
(§1) This experiment was assayed in a buffer prepared on the same day consisting of 10 mMTirs-HCl (pH=8.0), […] and 1 mM DTT. The compounds were prepared to the highest inhibitor concentration ultimately required in the 100× reaction with 100% DMSO and then transferred to one well of a 384-well Echo plate (Echo-eligible 384-well polypropylene microplates 2.0, transparent, flat-bottomed) and sequentially diluted in the next well with a 3-fold dilution of 100% DMSO, and so on, with a total of 10 concentrations based on Precision. 100% DMSO was added to two empty wells as control well without compound and control well without enzyme in the same 384-well Echo plate. 100 nL of compound was transferred from each well of the 384-well Echo plate to a 384-well assay plate (OptiPlate (384-well, white)) via the Echo 550 liquid processor. For wells with compounds and control well without compound, a mixture containing PRMT1 enzyme (5 uL) was added to the 384-well assay plate. For control well without enzyme, a mixture containing test buffer (5 uL) was added instead. The compounds were allowed to incubate with PRMT3 for 15 minutes at room temperature, and then a mixture containing cold SAM and peptide (5 uL) was added to start the reaction (final volume=10 uL). The final concentrations of the components were as follows: 0.1 nM for PRMT3, 15 uM for SAM, 0.05 uM for peptide, and 1% DMSO. After 60 min of incubation at room temperature, the reaction was terminated by the addition of donor and acceptor magnetic beads (15 uL) with a final concentration of 10 ug/mL diluted with AlphaLISA Epigenetics Buffer. The 384-well assay plate was incubated at room temperature for 60 min and the relative fluorescence units (RFU) were nextly determined using a multi-mode plate reader in Alpha mode (Ex680/Em615).
(§2) Curve fitting: the raw data were copied from Reader and the inhibition values were calculated in Excel by equation (1). […]
For orientation: In Alpha technology, singlet oxygen from a donor bead excites a nearby acceptor bead.

The target in a further test is PRMT8 (Homo sapiens, UniProt Q9NR22). The test can be described thus: PRMT panel selectivity test, PRMT8. The procedure: [The procedure below names another target; the source says it served here with some conditions changed.] as §1, §2
PRMT8, sequence (Q9NR22 whole entry): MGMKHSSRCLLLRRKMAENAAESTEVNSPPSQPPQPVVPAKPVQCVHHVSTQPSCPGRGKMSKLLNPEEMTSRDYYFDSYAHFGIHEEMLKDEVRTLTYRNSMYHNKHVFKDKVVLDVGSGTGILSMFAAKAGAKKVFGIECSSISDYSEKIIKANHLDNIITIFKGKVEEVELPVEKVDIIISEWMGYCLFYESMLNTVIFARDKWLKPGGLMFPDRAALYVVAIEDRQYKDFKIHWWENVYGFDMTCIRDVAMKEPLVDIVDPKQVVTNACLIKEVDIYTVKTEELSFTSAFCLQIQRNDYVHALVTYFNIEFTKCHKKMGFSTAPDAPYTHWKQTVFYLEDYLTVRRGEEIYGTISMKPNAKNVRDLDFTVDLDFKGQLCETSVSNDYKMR

PRMT3, sequence (O60678 whole entry): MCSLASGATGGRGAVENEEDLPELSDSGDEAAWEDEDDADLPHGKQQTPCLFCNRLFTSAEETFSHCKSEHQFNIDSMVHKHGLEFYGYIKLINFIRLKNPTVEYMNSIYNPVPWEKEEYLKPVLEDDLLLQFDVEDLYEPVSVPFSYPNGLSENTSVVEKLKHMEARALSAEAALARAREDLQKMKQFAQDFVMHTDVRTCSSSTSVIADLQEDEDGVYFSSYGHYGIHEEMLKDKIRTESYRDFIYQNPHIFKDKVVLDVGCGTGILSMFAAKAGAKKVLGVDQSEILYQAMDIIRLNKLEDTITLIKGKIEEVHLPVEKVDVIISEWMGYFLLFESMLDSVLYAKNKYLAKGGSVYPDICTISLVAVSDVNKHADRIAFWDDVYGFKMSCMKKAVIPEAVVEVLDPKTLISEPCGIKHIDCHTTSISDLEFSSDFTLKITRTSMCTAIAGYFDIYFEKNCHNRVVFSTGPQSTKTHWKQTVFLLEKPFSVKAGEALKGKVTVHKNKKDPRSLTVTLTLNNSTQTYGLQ
PRMT5, sequence (O14744 whole entry, species assumed): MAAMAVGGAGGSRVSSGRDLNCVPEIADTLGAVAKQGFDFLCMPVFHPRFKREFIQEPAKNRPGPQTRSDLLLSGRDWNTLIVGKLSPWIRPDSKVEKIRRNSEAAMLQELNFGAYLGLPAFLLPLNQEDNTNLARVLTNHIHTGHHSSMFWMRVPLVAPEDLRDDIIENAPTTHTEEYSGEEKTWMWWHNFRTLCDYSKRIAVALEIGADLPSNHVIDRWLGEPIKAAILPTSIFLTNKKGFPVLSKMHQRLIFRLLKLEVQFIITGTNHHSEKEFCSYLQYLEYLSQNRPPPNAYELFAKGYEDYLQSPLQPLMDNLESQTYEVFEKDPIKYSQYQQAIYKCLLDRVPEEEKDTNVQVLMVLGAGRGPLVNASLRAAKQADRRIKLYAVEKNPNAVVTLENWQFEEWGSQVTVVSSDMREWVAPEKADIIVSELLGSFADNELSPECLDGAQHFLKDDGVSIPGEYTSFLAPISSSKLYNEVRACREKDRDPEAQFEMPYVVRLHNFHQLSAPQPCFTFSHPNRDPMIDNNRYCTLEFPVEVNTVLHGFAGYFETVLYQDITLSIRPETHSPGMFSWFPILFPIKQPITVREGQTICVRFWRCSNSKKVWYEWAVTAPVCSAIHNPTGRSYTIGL
PRMT5, sequence (Q9BQA1 whole entry partner, species assumed): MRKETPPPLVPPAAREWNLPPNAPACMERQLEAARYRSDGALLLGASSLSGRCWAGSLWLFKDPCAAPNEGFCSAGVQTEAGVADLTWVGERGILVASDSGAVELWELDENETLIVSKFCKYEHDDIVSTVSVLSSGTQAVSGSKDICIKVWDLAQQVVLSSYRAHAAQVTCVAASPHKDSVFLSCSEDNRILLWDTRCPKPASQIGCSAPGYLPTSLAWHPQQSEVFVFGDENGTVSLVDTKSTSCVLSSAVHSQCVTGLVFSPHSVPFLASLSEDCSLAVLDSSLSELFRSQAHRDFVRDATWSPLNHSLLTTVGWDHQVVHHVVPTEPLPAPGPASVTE
PRMT1, sequence (Q99873 whole entry): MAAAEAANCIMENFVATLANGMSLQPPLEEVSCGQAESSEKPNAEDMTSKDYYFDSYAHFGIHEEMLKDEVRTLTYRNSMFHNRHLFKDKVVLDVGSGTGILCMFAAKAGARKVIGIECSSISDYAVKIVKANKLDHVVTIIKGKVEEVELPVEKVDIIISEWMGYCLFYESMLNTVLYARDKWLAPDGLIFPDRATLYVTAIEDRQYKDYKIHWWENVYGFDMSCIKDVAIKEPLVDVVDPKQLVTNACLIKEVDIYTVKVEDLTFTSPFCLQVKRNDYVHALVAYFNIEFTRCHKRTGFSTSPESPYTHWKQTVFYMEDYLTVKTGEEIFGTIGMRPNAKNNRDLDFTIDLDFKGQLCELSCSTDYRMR

As usually defined, the IC50 is the point on the concentration scale where inhibition reaches its midpoint. Lower therefore signals greater potency. As for `CNCCN(C)Cc1ccccc1C1CCN(c2ccccc2)CC1` [P023], the IC50 is not below 10000 nM against PRMT5, less than 50 nM at PRMT1, less than 50 nM against PRMT3 and less than 50 nM on PRMT8.

On to `CNCCN(C)Cc1ncccc1N1CCc2ccccc2CC1` [P118], for which the IC50 was not below 10000 nM on PRMT5, less than 50 nM at PRMT1, 50 to 500 nM at PRMT3 and less than 50 nM on PRMT8.

As to `CCOCC1(COCC)CCC(c2cccnc2CN(C)CCNC)CC1` [P207], the IC50 at PRMT5 is not below 10000 nM; against PRMT1, less than 50 nM; against PRMT3, 50 to 500 nM; on PRMT8, less than 50 nM.

These data come from patent publication US20240307409A1, “ARGININE METHYLTRANSFERASE INHIBITOR AND USE THEREOF” (Cytosinlab Therapeutics Co., Ltd., priority 2021, published 2024).
